Where “and” joins values, the source holds several entries; their conditions need not be identical. Equal values may be shown once.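 1) Cells in 96-well plates. 2) Compound, 48 h, 5 concentrations. 3) Linear interpolation between surrounding doses. 4) Unreached endpoint = highest concentration. GI50: concentration for 50% inhibition of growth. The concentration for full growth arrest is given as TGI.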
Experiments:
Experiment in all cases: DTP human tumour cell line panel, 48 h
NCI/ADR-RES ovarian = tested on: NCI/ADR-RES ovarian
HL-60(TB) leukemia = tested on: HL-60(TB) leukemia
RPMI-8226 leukemia = tested on: RPMI-8226 leukemia
HCT-15 colon = tested on: HCT-15 colon
DU-145 prostate = tested on: DU-145 prostate
A498 renal = tested on: A498 renal
T-47D breast = tested on: T-47D breast
SF-539 CNS = tested on: SF-539 CNS
SNB-75 CNS = tested on: SNB-75 CNS
SF-295 CNS = tested on: SF-295 CNS

| Structure (SMILES) | GI50 (NCI/ADR-RES ovarian) [µM] | TGI (NCI/ADR-RES ovarian) [µM] | GI50 (HL-60(TB) leukemia) [µM] | TGI (HL-60(TB) leukemia) | GI50 (RPMI-8226 leukemia) [µM] | TGI (RPMI-8226 leukemia) | GI50 (HCT-15 colon) [µM] | TGI (HCT-15 colon) | GI50 (DU-145 prostate) [µM] | TGI (DU-145 prostate) | GI50 (A498 renal) [µM] | TGI (A498 renal) [µM] | GI50 (T-47D breast) [µM] | TGI (T-47D breast) | GI50 (SF-539 CNS) [µM] | TGI (SF-539 CNS) | GI50 (SNB-75 CNS) [µM] | TGI (SNB-75 CNS) | GI50 (SF-295 CNS) [µM] | TGI (SF-295 CNS) |
| --- | --- | --- | --- | --- | --- | --- | --- | --- | --- | --- | --- | --- | --- | --- | --- | --- | --- | --- | --- | --- |
| COc1cc(/C=C/C(=O)c2c(-c3ccc(Cl)cc3)nc3sc(C)nn23)cc(OC)c1OC | 7.85 | > 100 | 5.94 | 40.6 µM | 1.82 | 5.78 µM | 15.8 | > 100 µM | > 100 | > 100 µM | 51.9 | > 100 | 2.56 | 13.5 µM | > 100 | > 100 µM | 12.8 | 33.7 µM | 30 | > 100 µM |
| COc1ccc(S(=O)(=O)NCCCNc2nccc(-c3c(-c4ccc(F)cc4)nc4sccn34)n2)cc1 | 5.23 | > 100 | 7.51 | > 100 µM | 6.25 | 58.2 µM | 3.6 | > 100 µM | 7.14 | > 100 µM | 1.21 | 8.37 | 3.24 | 71.3 µM | 17.1 | > 100 µM | 1.56 | 7.41 µM | 11.2 | 72.3 µM |
| Cc1c(N)nc(C2CC(=O)N2CC(N)C(N)=O)nc1C(=O)NC(C(=O)NC(C)C(O)C(C)C(=O)NC(C(=O)NCCc1nc(-c2nc(C(=O)NCCNCC(C)O)cs2)cs1)C(C)O)C(OC1OC(CO)C(O)C(O)C1OC1OC(CO)C(O)C(OC(N)=O)C1O)c1cnc[nH]1 (stereo not drawn) |  | 50 | 24.4 | 50 µM and > 37.4 µM | > 50 | > 50 µM | 42.7 | 50 µM and > 75.9 µM |  | 37.6 µM |  | > 46.6 |  | > 5 µM | 0.0499 | 1.32 µM and 0.255 µM | 3.06 | 23.9 µM and 6.66 µM | 0.46 | 12.1 µM and 15.7 µM |
| Oc1ccc(/C=N/Nc2nnc(N/N=C/c3ccc(O)cc3O)c3ccccc23)c(O)c1 |  | 12.5 | 0.376 | 0.598 µM and 4.81 µM | 0.345 | 0.533 µM and 1.77 µM | 0.332 |  | 0.432 | 0.831 µM and 5.99 µM | 1.33 | 3.51 | 0.384 | 0.633 µM and 1.64 µM |  | 0.714 µM and 0.755 µM | 0.361 | 1.44 µM | 0.173 | 0.813 µM and 0.597 µM |
| O=C(Nc1cccc(C(F)(F)F)c1)Nc1ccc(OCc2nnc(-c3ccccc3)o2)c(F)c1 | 4.61 | 26.9 | 2.58 | 6.4 µM | 1.67 | 6.2 µM | 2.92 | 54.3 µM | 6.06 | 28.3 µM | 3.38 | 25.8 | 2.44 | 16.1 µM | 5.1 | 23.2 µM | 0.645 | 5.81 µM | 2.7 | 14.1 µM |
| CC(=O)Nc1ccc(C(=O)COc2cccc(/C=C3\CCc4ccccc4C3=O)c2)cc1 | 10.5 | 65.9 | 4.4 | 22.7 µM | 1.82 | 4.97 µM | 11.2 | 32 µM | 19.2 | 53 µM | 53.6 | > 100 | 11 | 57.2 µM | 19.2 | 40.2 µM | 13 | 64.7 µM | 11.2 | 39.6 µM |
| Cn1c(=O)c(Oc2ccc(F)cc2F)cc2cnc(NC3CCC(O)CC3)nc21 (stereo not drawn) | > 25 | > 25 | > 25 | > 25 µM | > 25 | > 25 µM | > 25 | > 25 µM | > 25 | > 25 µM | 5.89 | > 25 | > 25 | > 25 µM | > 25 | > 25 µM | > 25 | > 25 µM | > 25 | > 25 µM |
| CCC(=C(c1ccc(OCCN(CC)CC)cc1)c1ccc(OCCN(CC)CC)cc1)c1ccc(Cl)cc1 | 0.625 | 1.21 | 0.626 | 1.32 µM | 0.714 | 1.64 µM | 0.541 | 1.08 µM | 0.619 | 1.19 µM | 0.591 | 1.66 | 0.574 | 1.39 µM | 0.552 | 1.04 µM | 0.668 | 2.32 µM | 0.615 | 1.19 µM |
| OCCn1c(-c2ccncc2)c(-c2ccc(F)cc2)c2ncccc21 | > 25 | > 25 | > 25 | > 25 µM | > 25 | > 25 µM | > 25 | > 25 µM | > 25 | > 25 µM | > 20.3 | > 25 | > 25 | > 25 µM | > 25 | > 25 µM | > 25 | > 25 µM | > 25 | > 25 µM |

Reference: PubChem BioAssay (NCI)
